One experiment concerns rat aortic rings. As to the kind of experiment: Muscle-bath assay, carbachol-induced vasorelaxation of rat aortic rings. On the set-up: species or system rat (Sprague Dawley). The settings on record: no TP508, 500 nM norepinephrine 10 min, cumulative 750 nM carbachol; n=3 aortas.
For experiment [1], the system named is HUVEC. The experiment in a line: Nitric oxide assay in HUVEC. To be noted: 150 μg/ml TP508 vs 20 μM A23187, 1 h, n=4 (p>0.05). Type of experiment: cell-based, human.
A further experiment relates to endothelial cells. The settings on record: thrombin immobilised to a surface, ref [15]–[17]; cited from earlier work.
The target in the next experiment is αvβ3. To be noted: read-out: affinity of αvβ3 to ligand; ref [30]–[31]; cited from earlier work.
Experiment [2] addresses T1, integrin αvβ3 (Homo sapiens, UniProt P05106+P06756). The experiment in a line: Adhesion of HEK-αvβ3 cells to immobilised TP508 peptides. To be noted: calcein AM-labelled cells, 30 min, 37°C, fluorescence (Ex485/Em530), n=3. Type of experiment: cell-based.
In experiment [3] the test system is HUVEC. The experiment in a line: Adhesion of HUVEC to immobilised TP508 peptides. Type of experiment: cell-based, human. The settings on record: calcein AM-labelled cells, 30 min, 37°C, fluorescence, n=3.
In experiment [4] the test system is HUVEC. As to the kind of experiment: Inhibition of HUVEC adhesion to immobilised fibrinogen by soluble peptide. The settings on record: wells coated with 1 μg/ml fibrinogen; 30 min, n=3. It is filed as cell-based, human.
The target in experiment [5] is T1, integrin αvβ3. As to the kind of experiment: Surface plasmon resonance, binding to integrin αvβ3. To be noted: BIAcore 2000, CM5 chip, 1,290 RU RAD-TP508, αvβ3 0.053 to 1.06 μM. For orientation: In SPR one partner is held on a chip, and binding of the other changes the refractive index at the surface.
For experiment [6], the target named is T1, integrin αvβ3. As to the kind of experiment: Inhibition of HEK-αvβ3 adhesion to immobilised fibrinogen by soluble peptide. The settings on record: wells coated with 1 μg/ml fibrinogen; 30 min, n=3. It is filed as cell-based.

T1 sequence (P06756 31-889 limits assumed): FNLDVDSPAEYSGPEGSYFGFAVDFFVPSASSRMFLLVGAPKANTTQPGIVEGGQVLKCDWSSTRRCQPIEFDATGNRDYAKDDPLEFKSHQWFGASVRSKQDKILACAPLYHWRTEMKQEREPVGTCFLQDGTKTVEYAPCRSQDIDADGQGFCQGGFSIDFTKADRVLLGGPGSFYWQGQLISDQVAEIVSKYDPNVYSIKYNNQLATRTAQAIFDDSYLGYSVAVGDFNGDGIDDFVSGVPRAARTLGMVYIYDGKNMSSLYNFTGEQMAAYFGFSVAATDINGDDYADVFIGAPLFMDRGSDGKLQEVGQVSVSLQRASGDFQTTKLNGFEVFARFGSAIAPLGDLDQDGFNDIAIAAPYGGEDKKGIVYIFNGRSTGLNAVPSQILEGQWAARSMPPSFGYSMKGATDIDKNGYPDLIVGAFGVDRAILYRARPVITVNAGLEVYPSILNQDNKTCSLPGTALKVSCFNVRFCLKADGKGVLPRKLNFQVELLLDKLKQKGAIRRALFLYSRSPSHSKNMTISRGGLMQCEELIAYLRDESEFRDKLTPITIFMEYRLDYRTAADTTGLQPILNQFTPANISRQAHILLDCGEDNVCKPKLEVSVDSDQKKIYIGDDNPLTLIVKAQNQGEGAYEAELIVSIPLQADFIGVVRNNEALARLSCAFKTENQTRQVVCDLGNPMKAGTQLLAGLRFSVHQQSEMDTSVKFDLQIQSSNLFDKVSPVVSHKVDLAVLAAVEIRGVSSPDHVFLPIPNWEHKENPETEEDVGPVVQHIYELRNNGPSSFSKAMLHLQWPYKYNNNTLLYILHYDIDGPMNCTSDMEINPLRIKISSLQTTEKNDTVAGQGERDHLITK
T1 sequence (P06756 891-1048 partner limits assumed): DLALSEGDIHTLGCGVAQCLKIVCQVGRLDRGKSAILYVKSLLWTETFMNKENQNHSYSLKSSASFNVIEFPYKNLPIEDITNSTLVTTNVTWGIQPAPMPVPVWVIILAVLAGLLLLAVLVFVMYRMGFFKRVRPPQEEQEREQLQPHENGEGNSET
T1 sequence (P05106 27-788): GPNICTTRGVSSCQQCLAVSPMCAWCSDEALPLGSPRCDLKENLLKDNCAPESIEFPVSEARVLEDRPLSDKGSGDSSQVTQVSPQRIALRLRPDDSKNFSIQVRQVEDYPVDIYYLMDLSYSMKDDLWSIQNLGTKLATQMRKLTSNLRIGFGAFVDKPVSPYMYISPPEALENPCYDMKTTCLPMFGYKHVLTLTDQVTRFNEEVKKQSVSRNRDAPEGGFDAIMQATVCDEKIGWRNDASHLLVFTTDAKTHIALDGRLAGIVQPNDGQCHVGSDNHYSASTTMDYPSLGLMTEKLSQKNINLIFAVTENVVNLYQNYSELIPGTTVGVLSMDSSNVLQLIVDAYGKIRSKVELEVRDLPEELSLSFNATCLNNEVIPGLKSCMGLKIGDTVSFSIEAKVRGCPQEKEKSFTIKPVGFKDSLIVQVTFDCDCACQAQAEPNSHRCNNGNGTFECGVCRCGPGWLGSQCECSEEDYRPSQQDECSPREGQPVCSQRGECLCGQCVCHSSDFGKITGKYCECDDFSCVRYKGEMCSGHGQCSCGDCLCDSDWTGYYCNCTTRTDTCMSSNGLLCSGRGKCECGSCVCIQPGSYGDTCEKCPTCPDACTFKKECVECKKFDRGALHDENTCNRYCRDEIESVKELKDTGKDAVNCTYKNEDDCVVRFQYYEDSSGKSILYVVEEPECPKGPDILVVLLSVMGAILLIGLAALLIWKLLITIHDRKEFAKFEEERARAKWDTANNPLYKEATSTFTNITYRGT

With `C[N+](C)(C)CCOC(N)=O` [carbachol], the “vasorelaxation by carbachol in rings not treated with TP508, 750 nM” value in the experiment with rat aortic rings stood at 20%.
`CNc1ccc2oc(C[C@H]3O[C@@]4(CC[C@H]3C)O[C@H]([C@H](C)C(=O)c3ccc[nH]3)[C@H](C)C[C@H]4C)nc2c1C(=O)O` [A23187]: the “NO induction by TP508 compared with A23187” value in the experiment on HUVEC [1] was “a potent inducer of NO”.
With Thrombin, in the experiment with endothelial cells, the “endothelial cell adhesion to immobilised thrombin” value is on record as “support endothelial cell adhesion in an RGD-dependent manner”.
Regarding fibrinogen: Human fibrinogen, the Kd on αvβ3 was 64 nM.
Turning to “vitronectin: physiological ligand of αvβ3”, the Kd at αvβ3 is 27 nM.
As to AGYKPDEGKRADACEGDSGGPFV [RAD-TP508], the “adhesion of HEK-αvβ3 cells to immobilised peptide” value on integrin αvβ3 [2] is “did not support HEK-αvβ3 adhesion”. Also, the “adhesion of HUVEC to immobilised peptide” value with HUVEC [3] is “did not support HUVEC adhesion”. Also, the “effect of soluble peptide on HUVEC adhesion to immobilised fibrinogen” value in the experiment with HUVEC [4] was “did not affect HUVEC adhesion to immobilised fibrinogen”. The “binding of αvβ3 to coupled peptide (SPR)” value on integrin αvβ3 [5] was “No binding”.
For KAPSEVDKAGDRDGYGFCGGPGE [scrTP508], the “adhesion of HEK-αvβ3 cells to immobilised peptide” value at integrin αvβ3 [2] was “did not support HEK-αvβ3 adhesion”. Further, the “adhesion of HUVEC to immobilised peptide” value in the experiment on HUVEC [3] is “did not support HUVEC adhesion”. The “effect of soluble peptide on HUVEC adhesion to immobilised fibrinogen” value with HUVEC [4] was “did not affect HUVEC adhesion to immobilised fibrinogen”.
Consider GRGDSP, for which the “effect of soluble peptide on HEK-αvβ3 adhesion to immobilised fibrinogen” value at integrin αvβ3 [6] is listed as “effectively inhibited cell adhesion”.

The values above are taken from paper PMC4540356 (Thrombosis and haemostasis, 2010).
